The values below come from publication PMC9274090, “Molecular Modeling of ABHD5 Structure and Ligand Recognition” (Frontiers in Molecular Biosciences, 2022).

Where two headings read alike, the source gives them in different places.

For this assay, the target named is T1, Alpha/beta hydrolase domain-containing 5 (ABHD5, CGI-58) (Mus musculus, UniProt Q9DBL9).
T1 construct: ABHD5 fused to C-terminal fragment of G. princeps luciferase
T1 sequence (Q9DBL9 1-351): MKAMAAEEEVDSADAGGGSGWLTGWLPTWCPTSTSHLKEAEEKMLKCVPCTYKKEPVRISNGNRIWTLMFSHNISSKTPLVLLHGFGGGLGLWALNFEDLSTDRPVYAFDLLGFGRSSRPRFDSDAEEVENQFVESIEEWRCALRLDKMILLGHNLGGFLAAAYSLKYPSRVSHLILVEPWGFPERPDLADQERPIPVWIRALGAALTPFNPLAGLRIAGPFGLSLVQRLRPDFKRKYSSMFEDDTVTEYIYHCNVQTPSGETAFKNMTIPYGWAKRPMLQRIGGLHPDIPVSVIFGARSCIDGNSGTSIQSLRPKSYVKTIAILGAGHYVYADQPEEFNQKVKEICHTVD
T1 sequence (Q8BVZ1 1-463 partner): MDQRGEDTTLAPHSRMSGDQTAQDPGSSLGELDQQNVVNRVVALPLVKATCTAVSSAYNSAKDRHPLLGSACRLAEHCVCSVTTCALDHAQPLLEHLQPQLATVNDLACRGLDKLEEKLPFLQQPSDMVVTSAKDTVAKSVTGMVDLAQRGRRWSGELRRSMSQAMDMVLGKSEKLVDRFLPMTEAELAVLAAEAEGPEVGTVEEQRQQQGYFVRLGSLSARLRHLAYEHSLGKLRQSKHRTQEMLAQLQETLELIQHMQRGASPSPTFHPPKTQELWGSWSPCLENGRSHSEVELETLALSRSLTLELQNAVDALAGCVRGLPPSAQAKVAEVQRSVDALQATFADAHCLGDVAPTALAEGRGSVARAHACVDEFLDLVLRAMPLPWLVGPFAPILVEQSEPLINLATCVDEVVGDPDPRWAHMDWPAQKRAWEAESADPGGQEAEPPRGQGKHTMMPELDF
Description: split luciferase complementation in cell lysates: ligand-induced dissociation of ABHD5-PLIN5. In kind it is biochemical.

With `O=C(Cc1cccc(F)c1)N1CCN(S(=O)(=O)c2ccc3c(c2)OCCO3)CC1` [SR3133, SR-03000003133], the IC50 (commonly the concentration that inhibits the measured activity by half) (read-out: IC50) turned out to be 15.9 µM.

`COc1ccc(CC(=O)N2CCN(S(=O)(=O)c3ccc4c(c3)OCCCO4)CC2)cc1` [SR3134, SR-03000003134]: the IC50 (read-out: IC50) turned out to be 8.9 µM.

The molecule `Cc1ccc2c(CC(=O)N3CCN(S(=O)(=O)c4ccc5c(c4)OCCO5)CC3)coc2c1` [SR4559, SR-01000604559] showed an IC50 of 3.44 µM.
